Test results reported in patent US20240016773A1, “COMPOSITIONS AND METHODS FOR DIAGNOSIS AND TREATMENT OF CONDITIONS RELATED TO AGING” (EPITRACKER, INC., priority 2018, published 2024).

How the values were obtained:
[1] = tested on: New Zealand white rabbits fed a high fat diet; assay: High fat diet-fed New Zealand white rabbit model, daily pentadecanoic acid in diet; format: in vivo
Experimental: This study examined the impact of daily oral administration of synthetic pentadecanoic acid (C15:0) on serum globulins, cholesterol, and liver fibrosis in an animal model fed a high fat diet. Sixteen New Zealand white rabbits were fed a high fat diet (HFD) (4% peanut oil and 0.5% cholesterol) for 2 weeks. Study rabbits were then divided into the following two groups of eight: high fat diet controls, and high fat diet animals treated with pentadecanoic acid (35 mg/kg body weight). The test article was a synthetic powder form stable at room temperature and purchased from Sigma-Aldrich (Products W433400 (≥99% pentadecanoic acid). The test article was provided daily in the diet for 11 weeks (77 days) while continuing ad libitum access to the HFD. Total cholesterol, platelets, and globulins were measured at Days 0 and 77.
On Day 77, liver tissues from HFD controls and pentadecanoic acid-treated animals were collected and scored histologically for fibrosis by a board-certified veterinary pathologist. Liver tissues were processed into paraffin-embedded blocks for H&E and picrosirius red staining for fibrosis (collagen deposition). Whole picrosirius red stained liver slides were scanned using Aperio ScanScope AT2 at 20×. Fibrosis stages were defined as follows: 0=none, 1=persinusoidal or periportal, 2=perisinusoidal and portal/periportal, 3=bridging fibrosis, 4=cirrhosis. Data from the treated group were compared to the control group using Wilcoxon rank sum analyses. Significance was defined as a P value less than or equal to 0.05.

[2] = tested on: Primary dermal fibroblasts stimulated with IL-1β, TNFα, IFNγ, EGF, bFGF, and PDGF-BB; assay: Third cell-based system: fibrosis and cell proliferation; parameters: species or system human
Experimental: This study examined the impact of synthetic pentadecanoic acid (C15:0) at four concentrations (740 nm and 2.2, 6.7, and 20 μM) on three primary human cell-based activity systems that were exposed to agents that mimicked allergic, thrombotic, and fibrotic disease states. In general, protein-based biomarkers in these systems were measured and compared with controls. Pentadecanoic acid was considered ‘active’ when 2 or more consecutive concentrations changed a given biomarker in the same direction relative to vehicle controls, were outside of the significance envelope of internal controls, and had at least one concentration with an effect size greater than 20% (log 10 ratio >0.1).
The third cell-based system recapitulated fibrosis and cell proliferation. Primary dermal fibroblasts were stimulated with IL-1β, TNFα, IFNγ, EGF, bFGF, and PDGF-BB and incubated with pentadecanoic acid for 24 hours. In addition to controls that were not treated with pentadecanoic acid, a negative, non-stimulated system was also included. Plasminogen activator inhibitor-1 (PAI-1), Collagen-I and fibroblast proliferation (at 72 hours) in this system were measured and compared with controls.

[3] = tested on: HDF3CGF system: dermal fibroblasts (IFNγ, TNFα, IL-1β, EGF, bFGF, PDGF-BB); assay: BioMAP Diversity PLUS, HDF3CGF system; format: cell-based, human; settings: HD3CGF (so in the source)
Source text: (§1) The Diversity PLUS panel allows test agent characterization in an unbiased way across a broad set of systems modeling various human disease states. These systems are designed to model complex human tissue and disease biology of the vasculature, skin, lung, and inflammatory tissues. Quantitative measurements of 148 biomarker activities across this broad panel, along with comparative analysis of biological activities from known bioactive agents, were used to predict and compare the efficacy and function of each selected compound at four concentrations (740 nm and 2.2, 6.7 and 20 μM).
(§2) BioMAP systems are constructed with one or more primary cell types from healthy human donors, with stimuli (such as cytokines or growth factors) added to capture relevant signaling networks that naturally occur in human tissue or pathological conditions. Vascular biology is modeled in both a Th1 (3C system) and a Th2 (4H system) inflammatory environment, as well as in a Th1 inflammatory state specific to arterial smooth muscle cells (CASM3C system). Additional systems recapitulate aspects of the systemic immune response including monocyte-driven Th1 inflammation (LPS system) or T cell stimulation (SAg system), chronic Th1 inflammation driven by macrophage activation (lMphg system) and the T cell-dependent activation of B cells that occurs in germinal centers (BT system). The BE3C system (Th1) and the BF4T system (Th2) represent airway inflammation of the lung, while the MyoF system models myofibroblast-lung tissue remodeling. Lastly, skin biology is addressed in the KF3CT system modeling Th1 cutaneous inflammation and the HDF3CGF system modeling wound healing.
(§3) Each test agent generates a signature BioMAP profile that is created from the changes in protein biomarker readouts within individual system environments. Biomarker readouts (7-17 per system) are selected for therapeutic and biological relevance, are predictive for disease outcomes or specific drug effects and are validated using agents with known mechanism of action (MoA). Each readout is measured quantitatively by immune-based methods that detect protein (e.g., ELISA) or functional assays that measure proliferation and viability. BioMAP readouts are diverse and include cell surface receptors, cytokines, chemokines, matrix molecules and enzymes. In total, the Diversity PLUS panel contains 148 biomarker readouts that capture biological changes that occur within the physiological context of the particular BioMAP system. Specific BioMAP activities have been correlated to in vivo biology, and multiparameter BioMAP profiles have been used to distinguish compounds based on MoA and target selectivity across diverse physiological systems.
(§4) Activated BioMAP systems were incubated with each compound for 24 to 72 hours. Protein-based biomarkers from activated cell systems were measured and compared with non-treated control systems.

[4] = tested on: twelve different human primary cell systems mimicking various disease states; assay: BioMAP Diversity PLUS panel, twelve human primary cell systems (summary by disease); format: cell-based; parameters: key: x: Significantly reduced cell-based biomarkers relevant to specific diseases and conditions
Source text: As a proof of concept, 14 compounds were selected from our compound library based on predicted efficacy in lowering inflammation in dolphins. Pure synthetic forms of these compounds were screened for cell-based activities (relevant to multiple aging-associated diseases and diseases that may impact longevity) using twelve different human primary cell systems mimicking various disease states (TABLE 4—description of primary human cell systems used to screen selected compounds in library).
as §1, §2, §3, §4

[5] = 24 hours incubation, 6.7 μM and 20 μM bioactive, vs controls

With `CCCCCCCCCCCCCCC(=O)O` [Pentadecanoic acid, pentadecanoic acid] the Early mortalities ([1]; 35 mg/kg daily in diet, 11 weeks) was “no early mortalities”, the “Tolerability of test article” value ([1]; 35 mg/kg daily in diet, 11 weeks, HFD rabbits) was “tolerated the test article throughout the study” and the “Stage 3 bridging fibrosis in liver (FIG. 1)” value ([1]; 35 mg/kg daily oral for 11 weeks, histology, picrosirius red) was “lack of Stage 3 bridging fibrosis”. The “Platelets compared with HFD control group” value ([1]; Day 77, 35 mg/kg, HFD rabbits) was “lower”, the Globulins ([1]; Index at Day 77 (head), 35 mg/kg dose daily in diet 11 weeks, HFD rabbits, P 0.004) was 1.3 ± 0.7 G/dl and the Cholesterol ([1]; Index at Day 77 (head), 35 mg/kg dose daily in diet 11 weeks, HFD rabbits, plasma, P 0.024) was 2516 ± 746 mg/dL. The “Liver Fibrosis Stage” value ([1]; Index at Day 77 (head), 35 mg/kg dose, n = 8, stage score 0-4, P 0.016) was 2.3 ± 0.5, the “Collagen-I (FIG. 4)” value [2, 5] was “decreases” and the “PAI-1 (FIG. 4)” value [2, 5] was “decreases”. The “72-hour fibroblast proliferation (FIG. 4)” value ([2]; 72 hours, 6.7 μM and 20 μM bioactive, vs controls) was “decreases”, the Cytotoxicity ([2]; all four concentrations (740 nm and 2.2, 6.7, and 20 μM)) was “non-cytotoxic” and the “Significant log10 reduction vs nontreated controls: 72-hour fibroblast proliferation” value ([3]; 6.7 μM) was −0.67 log10. The “Significant log10 reduction vs nontreated controls: Collagen I” value ([3]; 6.7 μM) was −0.07 log10, the “Significant log10 reduction vs nontreated controls: Plasminogen activation inhibitor 1 (PAI-1)” value ([3]; 6.7 μM) was −0.08 log10 and the “Significant log10 reduction vs nontreated controls: 72-hour fibroblast proliferation” value ([3]; 20.0 μM) was −1.1 log10. For the same compound, the “Significant log10 reduction vs nontreated controls: Collagen I” value ([3]; 20.0 μM) was −0.13 log10, the “Significant log10 reduction vs nontreated controls: Collagen III” value ([3]; 20.0 μM) was −0.13 log10 and the “Significant log10 reduction vs nontreated controls: Interferon gamma-induced protein 10 (IP-10)/CXCL10” value ([3]; 20.0 μM) was −0.14 log10. The “Significant log10 reduction vs nontreated controls: Interferon-inductible T cell alpha chemoattractant (I-TAC)/CXCL11” value ([3]; 20.0 μM) was −0.17 log10, the “Significant log10 reduction vs nontreated controls: Monokine induced by gamma interferon (MIG)/CXCL9” value ([3]; 20.0 μM) was −0.10 log10 and the “Significant log10 reduction vs nontreated controls: Plasminogen activation inhibitor 1 (PAI-1)” value ([3]; 20.0 μM) was −0.13 log10. For the same compound, the “Significant log10 reduction vs nontreated controls: Vascular cell adhesion molecule 1 (VCAM-1)” value ([3]; 20.0 μM) was −0.28 log10, the “Significantly reduced cell-based biomarkers relevant to: Allergy” value ([4]; Table 6) was “x” and the “Significantly reduced cell-based biomarkers relevant to: Asthma” value ([4]; Table 6) was “x”. For the same compound, the “Significantly reduced cell-based biomarkers relevant to: Autoimmunity” value ([4]; Table 6) was “x”, the “Significantly reduced cell-based biomarkers relevant to: Hematological oncology” value ([4]; Table 6) was “x” and the “Significantly reduced cell-based biomarkers relevant to: SLE” value ([4]; Table 6) was “x”. The “Significantly reduced cell-based biomarkers relevant to: T-cell dependent B cell proliferation” value ([4]; Table 6) was “x”, the “Significantly reduced cell-based biomarkers relevant to: Chronic inflammation” value ([4]; Table 7) was “x” and the “Significantly reduced cell-based biomarkers relevant to: Organ transplantation” value ([4]; Table 7) was “x”. For the same compound, the “Significantly reduced cell-based biomarkers relevant to: Psoriasis” value ([4]; Table 7) was “x”, the “Significantly reduced cell-based biomarkers relevant to: Rheumatoid arthritis” value ([4]; Table 7) was “x” and the “Significantly reduced cell-based biomarkers relevant to: Thl type inflammation” value ([4]; Table 7) was “x”. For the same compound, the “Significantly reduced cell-based biomarkers relevant to: Crohn's disease” value ([4]; Table 8) was “x”, the “Significantly reduced cell-based biomarkers relevant to: Fibrosis” value ([4]; Table 8) was “x” and the “Significantly reduced cell-based biomarkers relevant to: Hematological oncology” value ([4]; Table 8) was “x”. For the same compound, the “Significantly reduced cell-based biomarkers relevant to: Stromal biology in tumors” value ([4]; Table 8) was “x”.
